Results taken from PubChem BioAssay AID1919006 (Molecular Pharmacology Branch, DTP, NCI, 2023).
Values joined by “and” are separate entries in the source; they are usually repeats but may differ in a detail not shown here. Identical values can stand only once. One block for each compound: values may come before it.

Tested on: 885512-296-R-J2-PDC complex spheroid growth, % test/control
Experiment: Anticancer human tumor 885512-296-R-J2-PDC patient-derived breast carcinoma cell line growth inhibition [AhR]
Settings: for viability, T/C: stronger effect = lower value
Method in brief: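 Spheroids combined tumor cells with HUVEC endothelial cells and human MSCs as stroma. AhR antagonists were paired with standard or investigational drugs, each dosed in half-log steps down from near clinical Cmax, or from 10 microM where Cmax was unknown.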

[1] = curve of first compound, second compound 0.1 µM
[2] = curve of first compound, second compound 0.316 µM
[3] = curve of first compound, second compound 1 µM
[4] = curve of first compound, second compound 3.16 µM
[5] = curve of first compound, second compound 10 µM
[6] = second compound 0.1 µM, first compound 0.0316 µM
[7] = second compound 0.1 µM, first compound 0.1 µM
[8] = second compound 0.1 µM, first compound 0.316 µM
[9] = second compound 0.1 µM, first compound 1 µM
[10] = second compound 0.316 µM, first compound 0.0316 µM
[11] = second compound 0.316 µM, first compound 0.1 µM
[12] = second compound 0.316 µM, first compound 0.316 µM
[13] = second compound 0.316 µM, first compound 1 µM
[14] = second compound 1 µM, first compound 0.0316 µM
[15] = second compound 1 µM, first compound 0.1 µM
[16] = second compound 1 µM, first compound 0.316 µM
[17] = second compound 1 µM, first compound 1 µM
[18] = second compound 3.16 µM, first compound 0.0316 µM
[19] = second compound 3.16 µM, first compound 0.1 µM
[20] = second compound 3.16 µM, first compound 0.316 µM
[21] = second compound 3.16 µM, first compound 1 µM
[22] = second compound 10 µM, first compound 0.0316 µM
[23] = second compound 10 µM, first compound 0.1 µM
[24] = second compound 10 µM, first compound 0.316 µM
[25] = second compound 10 µM, first compound 1 µM
[26] = second compound 0.1 µM, first compound 0.00949 µM
[27] = second compound 0.1 µM, first compound 0.03 µM
[28] = second compound 0.1 µM, first compound 0.0949 µM
[29] = second compound 0.1 µM, first compound 0.3 µM
[30] = second compound 0.316 µM, first compound 0.00949 µM
[31] = second compound 0.316 µM, first compound 0.03 µM
[32] = second compound 0.316 µM, first compound 0.0949 µM
[33] = second compound 0.316 µM, first compound 0.3 µM
[34] = second compound 1 µM, first compound 0.00949 µM
[35] = second compound 1 µM, first compound 0.03 µM
[36] = second compound 1 µM, first compound 0.0949 µM
[37] = second compound 1 µM, first compound 0.3 µM
[38] = second compound 3.16 µM, first compound 0.00949 µM
[39] = second compound 3.16 µM, first compound 0.03 µM
[40] = second compound 3.16 µM, first compound 0.0949 µM
[41] = second compound 3.16 µM, first compound 0.3 µM
[42] = second compound 10 µM, first compound 0.00949 µM
[43] = second compound 10 µM, first compound 0.03 µM
[44] = second compound 10 µM, first compound 0.0949 µM
[45] = second compound 10 µM, first compound 0.3 µM
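Also: spheroids exposed to compounds for seven days.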

SMILES: CC1COCCN1c1cc(C2(S(C)(=N)=O)CC2)nc(-c2ccnc3[nH]ccc23)n1 (stereo not given) + Cc1cncc(-c2nc(NCCc3c[nH]c4ccccc34)c3ncn(C(C)C)c3n2)c1
IC50 [1]: 2280 nM
IC50 [2]: 1950 nM
IC50 [3]: 1510 nM
IC50 [4]: 282 nM
IC50 [5]: < 31.6 nM
viability, T/C [6]: 99.8%
viability, T/C [7]: 102%
viability, T/C [8]: 103%
viability, T/C [9]: 95%
viability, T/C (second compound 0.1 µM, first compound 3.16 µM): 32.3%
viability, T/C (second compound 0.1 µM, first compound 10 µM): 4.89%
viability, T/C [10]: 99.2%
viability, T/C [11]: 99.5%
viability, T/C [12]: 97.3%
viability, T/C [13]: 81.9%
viability, T/C (second compound 0.316 µM, first compound 3.16 µM): 26.9%
viability, T/C (second compound 0.316 µM, first compound 10 µM): 6.7%
viability, T/C [14]: 86.4%
viability, T/C [15]: 86.1%
viability, T/C [16]: 82.9%
viability, T/C [17]: 64.7%
viability, T/C (second compound 1 µM, first compound 3.16 µM): 23.6%
viability, T/C (second compound 1 µM, first compound 10 µM): 4.77%
viability, T/C [18]: 65%
viability, T/C [19]: 55.3%
viability, T/C [20]: 47.7%
viability, T/C [21]: 42.4%
viability, T/C (second compound 3.16 µM, first compound 3.16 µM): 20.4%
viability, T/C (second compound 3.16 µM, first compound 10 µM): 6.04%
viability, T/C [22]: 22.3%
viability, T/C [23]: 22.7%
viability, T/C [24]: 19.9%
viability, T/C [25]: 18.2%
viability, T/C (second compound 10 µM, first compound 3.16 µM): 12.5%
viability, T/C (second compound 10 µM, first compound 10 µM): 5%

SMILES: COc1cccc2c1C(=O)c1c(O)c3c(c(O)c1C2=O)CC(O)(C(=O)CO)CC3OC1CC(N)C(O)C(C)O1 (stereo not given)
viability, T/C (compound 0.0316 µM): 22.1% and 16.4% and 24.6%
viability, T/C (compound 0.1 µM): 20.5% and 11.7% and 14.2%
viability, T/C (compound 0.316 µM): 8.97% and 3.94% and 5.3%
viability, T/C (compound 1 µM): 0.67% and 0.49% and 0.27%
viability, T/C (compound 3.16 µM): 1.99% and 1.41% and 0.92%
viability, T/C (compound 10 µM): 1.58% and 1.1% and 0.8%
IC50 (curve of compound): < 31.6 nM

SMILES: CCN(c1cc(-c2ccc(CN3CCOCC3)cc2)cc(C(=O)NCc2c(C)cc(C)[nH]c2=O)c1C)C1CCOCC1 + CC(CO)NC(=O)c1cc(-c2ccc(Cl)cc2)nn(-c2cnn(C)c2)c1=O
IC50 [1]: > 3000 nM
IC50 [2]: > 3000 nM
IC50 [3]: > 3000 nM
IC50 [4]: > 3000 nM
IC50 [5]: > 3000 nM
viability, T/C [26]: 105%
viability, T/C [27]: 96.8%
viability, T/C [28]: 83.3%
viability, T/C [29]: 79.6%
viability, T/C (second compound 0.1 µM, first compound 0.949 µM): 74.9%
viability, T/C (second compound 0.1 µM, first compound 3 µM): 84.1%
viability, T/C [30]: 106%
viability, T/C [31]: 102%
viability, T/C [32]: 93%
viability, T/C [33]: 78.9%
viability, T/C (second compound 0.316 µM, first compound 0.949 µM): 70.5%
viability, T/C (second compound 0.316 µM, first compound 3 µM): 69.1%
viability, T/C [34]: 88.8%
viability, T/C [35]: 111%
viability, T/C [36]: 93.3%
viability, T/C [37]: 82%
viability, T/C (second compound 1 µM, first compound 0.949 µM): 80.3%
viability, T/C (second compound 1 µM, first compound 3 µM): 80.9%
viability, T/C [38]: 88.3%
viability, T/C [39]: 90.3%
viability, T/C [40]: 82.9%
viability, T/C [41]: 86.7%
viability, T/C (second compound 3.16 µM, first compound 0.949 µM): 71.4%
viability, T/C (second compound 3.16 µM, first compound 3 µM): 78.2%
viability, T/C [42]: 94.4%
viability, T/C [43]: 97.5%
viability, T/C [44]: 88%
viability, T/C [45]: 86.4%
viability, T/C (second compound 10 µM, first compound 0.949 µM): 68.5%
viability, T/C (second compound 10 µM, first compound 3 µM): 71.7%

SMILES: Nc1ncn(C2CC(O)C(CO)S2)c(=O)n1 (stereo not given) + Cc1ccccc1N=Nc1ccc(NC(=O)c2ccnn2C)c(C)c1
IC50 [1]: 206 nM
IC50 [2]: 182 nM
IC50 [3]: 189 nM
IC50 [4]: 262 nM
IC50 [5]: 88.2 nM
viability, T/C (second compound 0.1 µM, first compound 0.000949 µM): 92.7%
viability, T/C (second compound 0.1 µM, first compound 0.003 µM): 114%
viability, T/C [26]: 106%
viability, T/C [27]: 97.3%
viability, T/C [28]: 70.5%
viability, T/C [29]: 40.2%
viability, T/C (second compound 0.316 µM, first compound 0.000949 µM): 121%
viability, T/C (second compound 0.316 µM, first compound 0.003 µM): 108%
viability, T/C [30]: 134%
viability, T/C [31]: 117%
viability, T/C [32]: 63%
viability, T/C [33]: 40%
viability, T/C (second compound 1 µM, first compound 0.000949 µM): 106%
viability, T/C (second compound 1 µM, first compound 0.003 µM): 131%
viability, T/C [34]: 135%
viability, T/C [35]: 116%
viability, T/C [36]: 62.3%
viability, T/C [37]: 41.8%
viability, T/C (second compound 3.16 µM, first compound 0.000949 µM): 96.9%
viability, T/C (second compound 3.16 µM, first compound 0.003 µM): 104%
viability, T/C [38]: 106%
viability, T/C [39]: 101%
viability, T/C [40]: 69%
viability, T/C [41]: 47.4%
viability, T/C (second compound 10 µM, first compound 0.000949 µM): 52.6%
viability, T/C (second compound 10 µM, first compound 0.003 µM): 50.1%
viability, T/C [42]: 57.8%
viability, T/C [43]: 61.1%
viability, T/C [44]: 46.2%
viability, T/C [45]: 33.3%

SMILES: Cc1cncc(-c2nc(NCCc3c[nH]c4ccccc34)c3ncn(C(C)C)c3n2)c1
viability, T/C (compound 0.1 µM): 105% [middle of 20 runs]
viability, T/C (compound 3.16 µM): 60% [middle of 20 runs]
viability, T/C (compound 10 µM): 19.6% [middle of 20 runs]
IC50 (compound alone, run of 08/16/2022): 4.14 µM [middle of 24 runs]

Now from value to compound, other results behind:

IC50 (compound alone, run of 08/08/2022): > 10000 nM
SMILES: CC(CO)NC(=O)c1cc(-c2ccc(Cl)cc2)nn(-c2cnn(C)c2)c1=O (stereo not given)
viability, T/C (compound 0.316 µM): 96.5% [middle of 21 runs]
viability, T/C (compound 1 µM): 98.8% [middle of 21 runs]
viability, T/C (compound 10 µM): 93.9% [middle of 19 runs]

IC50 [1]: 863 nM
IC50 [2]: 871 nM
IC50 [3]: > 1000 nM
IC50 [4]: 354 nM
IC50 [5]: < 3.16 nM
SMILES: Nc1ncn(C2CC(O)C(CO)O2)c(=O)n1 (stereo not given) + Cc1cncc(-c2nc(NCCc3c[nH]c4ccccc34)c3ncn(C(C)C)c3n2)c1
viability, T/C (second compound 0.1 µM, first compound 0.00316 µM): 93.5%
viability, T/C (second compound 0.1 µM, first compound 0.01 µM): 104%
viability, T/C [6]: 101%
viability, T/C [7]: 93.6%
viability, T/C [8]: 74.4%
viability, T/C [9]: 46.4%
viability, T/C (second compound 0.316 µM, first compound 0.00316 µM): 101%
viability, T/C (second compound 0.316 µM, first compound 0.01 µM): 113%
viability, T/C [10]: 88.9%
viability, T/C [11]: 93.7%
viability, T/C [12]: 77.7%
viability, T/C [13]: 45.9%
viability, T/C (second compound 1 µM, first compound 0.00316 µM): 91.5%
viability, T/C (second compound 1 µM, first compound 0.01 µM): 86%
viability, T/C [14]: 80.7%
viability, T/C [15]: 90.4%
viability, T/C [16]: 76%
viability, T/C [17]: 58.5%
viability, T/C (second compound 3.16 µM, first compound 0.00316 µM): 67.8%
viability, T/C (second compound 3.16 µM, first compound 0.01 µM): 68.5%
viability, T/C [18]: 57.2%
viability, T/C [19]: 58.3%
viability, T/C [20]: 46%
viability, T/C [21]: 48.1%
viability, T/C (second compound 10 µM, first compound 0.00316 µM): 18.5%
viability, T/C (second compound 10 µM, first compound 0.01 µM): 20.6%
viability, T/C [22]: 20.7%
viability, T/C [23]: 11.7%
viability, T/C [24]: 14.9%
viability, T/C [25]: 12.7%
